Structures can show the parent of a compound that is named as a salt.
Key:
in vivo = details: mouse, iv, 10 mg/kg
Description: At 1, 4, 24, and 48 hours, the animals were terminated by CO2 asphyxiation and whole blood was collected via cardiac puncture. The collected blood was immediately placed into EDTA coated tubes (MICROTAINERS® from Becton Dickinson). Subsequently, plasma was prepared by centrifuging the EDTA treated whole blood at 500×g for 10 min. Lipid and drug was assayed via [^3 H]-Cholesteryl hexadecyl ether and I^14 C]-mitoxantrone tracer using a scintillation counter as described above.
An estimation of the amount of mitoxantrone retained in the liposomes that are in the circulation can be made by determining the ratio of mitoxantrone-to-lipid at the indicated time points. This estimation assumes that the level of free drug in the plasma of animals given liposomal mitoxantrone will be negligible.

[1] = Toxic dose range finding (maximum tolerated dose) in tumor-free mice; details: mouse, in vivo
Description: (§1) Injections were administered in a volume of 200 μL. In order to achieve this volume for the 20 mg/kg dose, the stock mixture was concentrated using Aquacide II. Survival times of the mice were then monitored over a sixty day time course. Increase in life span (ILS %) was calculated as follows: [formula] Maximum tolerated dose was determined by monitoring the weight loss of the mice over a two week period. If the mice lost greater than 30% of the original weight then the mice are terminated.

L1210 = L1210 anti-tumor activity (survival); assay type: in vivo, BDF1 mice; details: for 60 Day Survival / Mean Survival: single; for % ILS (Increase in Life Span): vs untreated control
Description: as §1
The antitumor effects of free mitoxantrone and liposomal mitoxantrone were compared using the L1210 tumor model. L1210 is a murine lymphocytic leukemia. […] This provides identical tumor models for the two organs.

[2] = Change in body weight during efficacy studies
Description: as §1

[3] = test system: tumor models and human carcinomas; details: cited from earlier work

O=C1c2c(O)ccc(O)c2C(=O)c2c(NCCNCCO)ccc(NCCNCCO)c21 [Free Mitoxantrone, mitoxantrone hydrochloride]
AUC (in vivo): 11.4 ng·h/mL
MTD [1]: 10 mg/kg
maximum therapeutic dose (L1210; 10^4 L1210 cells i.v., treated 24 h later): 10 mg/kg
60 Day Survival (L1210; drug dose 5 mg/kg): 0/5
Mean Survival (L1210; drug dose 5 mg/kg): 13.6 days
% ILS (Increase in Life Span) (L1210; drug dose 5 mg/kg): 58%
60 Day Survival (L1210; drug dose 10 mg/kg): 0/5
Mean Survival (L1210; drug dose 10 mg/kg): 16.6 days
% ILS (Increase in Life Span) (L1210; drug dose 10 mg/kg): 93%
60 Day Survival (L1210; drug dose 20 mg/kg): 0/5
Mean Survival (L1210; drug dose 20 mg/kg): 12.6 days
% ILS (Increase in Life Span) (L1210; drug dose 20 mg/kg): 47%
maximum % increase in life span (L1210; maximum over the doses tested): 93%
body weight loss at nadir ([2]; L1210-bearing mice, free 10 mg/kg, liposomal 20 mg/kg, day 12 to 13): ~30%
MTD ([2]; mouse, in vivo): 10 mg/kg
short and long term toxicity compared with doxorubicin [3]: lower short and long term toxicity than doxorubicin
toxic side effect [3]: myelosuppression

COc1cccc2c1C(=O)c1c(O)c3c(c(O)c1C2=O)C[C@@](O)(C(=O)CO)C[C@@H]3O[C@H]1C[C@H](N)[C@H](O)[C@H](C)O1 [doxorubicin]
toxic side effect [3]: dose limiting cardiotoxicity
